According to ChEMBL document CHEMBL1130618, “A novel and practical route to A-ring enyne synthon for 1 alpha,25-dihydroxyvitamin D3 analogs: synthesis of A-ring diastereomers of 1 alpha,25-dihydroxyvitamin D2 and 3-methyl-1,25-dihydroxyvitamin D3” (1998):

Assays:
HL-60 [1] = assay: HL-60 cell differentiation relative to 1-alpha, 25-dihydroxyvitamin D3; format: functional, Homo sapiens
Rattus norvegicus [2] = organism: Rattus norvegicus; assay: Compound was evaluated for rat serum Ca concentration in relative to 1-alpha, 25-dihydroxyvitamin D3; format: functional
Rattus norvegicus [3] = organism: Rattus norvegicus; assay: Compound was evaluated for rat serum Ca concentration; format: functional
[4] = target: T1, Vitamin D3 receptor (Bos taurus) (UniProt Q28037); assay: Binding affinity for bovine thymus Vitamin D3 receptor (VDR)
T1 sequence (whole entry): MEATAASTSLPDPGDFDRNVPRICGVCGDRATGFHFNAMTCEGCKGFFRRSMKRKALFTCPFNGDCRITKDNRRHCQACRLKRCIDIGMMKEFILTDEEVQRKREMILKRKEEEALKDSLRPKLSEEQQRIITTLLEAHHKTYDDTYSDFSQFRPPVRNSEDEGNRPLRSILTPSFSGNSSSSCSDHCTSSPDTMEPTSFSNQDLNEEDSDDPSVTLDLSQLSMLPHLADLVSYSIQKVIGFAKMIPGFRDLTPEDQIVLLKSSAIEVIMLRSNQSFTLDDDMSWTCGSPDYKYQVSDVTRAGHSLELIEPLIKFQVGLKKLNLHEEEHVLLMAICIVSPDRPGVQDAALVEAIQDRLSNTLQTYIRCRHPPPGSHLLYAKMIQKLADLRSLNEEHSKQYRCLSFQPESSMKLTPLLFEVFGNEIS

HL-60 [5] = assay: Effect on HL-60 cell differentiation; format: functional, Homo sapiens

C=C1/C(=C\C=C2/CCC[C@]3(C)[C@@H]([C@H](C)CCCC(C)(C)O)CC[C@@H]23)C[C@@H](O)[C@H](C)[C@H]1O
Relative potency (HL-60 [1]): 1

C=C1/C(=C\C=C2/CCC[C@]3(C)[C@@H]([C@H](C)CCCC(C)(C)O)CC[C@@H]23)C[C@@H](O)[C@@H](C)[C@@H]1O
Relative potency (HL-60 [1]): 10 | Relative potency (Rattus norvegicus [2]): 2

C=C1/C(=C\C=C2/CCC[C@]3(C)[C@@H]([C@H](C)CCCC(C)(C)O)CC[C@@H]23)C[C@@H](O)[C@@H](C)[C@H]1O
Relative potency (HL-60 [1]): 1.5

C=C1/C(=C\C=C2/CCC[C@]3(C)[C@@H]([C@H](C)CCCC(C)(C)O)CC[C@@H]23)C[C@H](O)[C@@H](C)[C@H]1O
Relative potency (HL-60 [1]): 3

C=C1/C(=C\C=C2/CCC[C@]3(C)[C@@H]([C@H](C)CCCC(C)(C)O)CC[C@@H]23)C[C@@H](O)[C@H](C)[C@@H]1O
Relative potency (HL-60 [1]): 200 | Relative potency (Rattus norvegicus [2]): 400

C=C1/C(=C\C=C2/CCC[C@]3(C)[C@@H]([C@H](C)CCCC(C)(C)O)CC[C@@H]23)C[C@@H](O)C[C@@H]1O [CALCITRIOL]
Relative potency (Rattus norvegicus [3]): 100 | Relative potency [4]: 100 | Relative potency (HL-60 [5]): 100

C=C1/C(=C\C=C2/CCC[C@]3(C)[C@@H]([C@H](C)CCCC(C)(C)O)CC[C@@H]23)C[C@H](O)[C@H](C)[C@H]1O
Relative potency (HL-60 [1]): 0.5

C=C1/C(=C\C=C2/CCC[C@]3(C)[C@@H]([C@H](C)CCCC(C)(C)O)CC[C@@H]23)C[C@H](O)[C@@H](C)[C@@H]1O
Relative potency (HL-60 [1]): 1.5
